Results from the supplement of paper PMC11061612.

How the values were obtained:
Assay in all cases: combination Emax (second highest fraction inhibited in the dose matrix, 72 h); higher = more inhibition; extreme values may be limits of the assay
[1] = test system: RKO (Colorectal Carcinoma)
Method in brief: (§1)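 Cell lines in DMEM/F12 or RPMI with 10% FBS were plated in 1536-well plates, held 24 hours at 37°C, 5% CO2, then given two-drug dose matrices for 72 hours (DMSO typically 0.2%). Viability was read by CellTiter-Glo 2.0 luminescence and scaled as inhibition from 0 (vehicle wells) to 1 (blank wells). Combination Emax is the second-highest inhibition in the matrix; Bliss excess is observed combination effect minus expected EA + EB − EA·EB, EA and EB being single-agent effects.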

[2] = test system: CAL-54 (Kidney Carcinoma)
Method in brief: as §1

NCI-H28 (Mesothelioma) = test system: NCI-H28 (Mesothelioma)
Method in brief: as §1

SH-4 (Melanoma) = test system: SH-4 (Melanoma)
Method in brief: as §1

[3] = test system: HDLM-2 (Hodgkin's Lymphoma)
Method in brief: as §1

HMV-II (Melanoma) = test system: HMV-II (Melanoma)
Method in brief: as §1

[4] = test system: LU-139 (Small Cell Lung Carcinoma)
Method in brief: as §1

[5] = test system: SK-OV-3 (Ovarian Carcinoma)
Method in brief: as §1

[6] = test system: OC-314 (Ovarian Carcinoma)
Method in brief: as §1

[7] = test system: K5 (Thyroid Gland Carcinoma)
Method in brief: as §1

Mewo (Melanoma) = test system: Mewo (Melanoma)
Method in brief: as §1

[8] = test system: RPMI-6666 (Non-Cancerous)
Method in brief: as §1

NCI-H2795 (Mesothelioma) = test system: NCI-H2795 (Mesothelioma)
Method in brief: as §1

[9] = test system: 8305C (Thyroid Gland Carcinoma)
Method in brief: as §1

[10] = test system: SW1271 (Small Cell Lung Carcinoma)
Method in brief: as §1

[11] = test system: HO-1-u-1 (Oral Cavity Carcinoma)
Method in brief: as §1

[12] = test system: MDA-MB-468 (Breast Carcinoma)
Method in brief: as §1

NB14 (Neuroblastoma) = test system: NB14 (Neuroblastoma)
Method in brief: as §1

[13] = test system: SU-DHL-6 (B-Cell Non-Hodgkin's Lymphoma)
Method in brief: as §1

[14] = test system: CAPAN-1 (Pancreatic Carcinoma)
Method in brief: as §1

| SMILES | combination Emax [1] | combination Emax [2] | combination Emax (NCI-H28 (Mesothelioma)) | combination Emax (SH-4 (Melanoma)) | combination Emax [3] | combination Emax (HMV-II (Melanoma)) | combination Emax [4] | combination Emax [5] | combination Emax [6] | combination Emax [7] | combination Emax (Mewo (Melanoma)) | combination Emax [8] | combination Emax (NCI-H2795 (Mesothelioma)) | combination Emax [9] | combination Emax [10] | combination Emax [11] | combination Emax [12] | combination Emax (NB14 (Neuroblastoma)) | combination Emax [13] | combination Emax [14] |
| --- | --- | --- | --- | --- | --- | --- | --- | --- | --- | --- | --- | --- | --- | --- | --- | --- | --- | --- | --- | --- |
| N#Cc1cnc(Nc2cc(NC[C@H]3CNCCO3)c(C(F)(F)F)cn2)cn1 [SRA737] + C=CCn1c(=O)c2cnc(Nc3ccc(N4CCN(C)CC4)cc3)nc2n1-c1cccc(C(C)(C)O)n1 [AZD1775] (first compound max 10 µM, partner max 1 µM) | 0.957 | 0.749 | 0.617 | 0.656 | 0.697 | 0.53 | 0.564 | 0.572 | 0.928 | 0.395 | 0.638 | 0.865 | 0.707 | 0.553 | 0.488 | 0.924 | 0.642 | 0.997 | 0.933 | 0.507 |
| N#Cc1cnc(Nc2cc(NC[C@H]3CNCCO3)c(C(F)(F)F)cn2)cn1 [SRA737] + O=c1[nH]cc(F)c(=O)[nH]1 [5-Fluorouracil] (first compound max 10 µM, 7x7, partner max 20 µM) | 0.656 | 0.565 | 0.28 | 0.383 | 0.645 | 0.303 | 0.356 |  | 0.902 | 0.451 | 0.38 | 0.901 | 0.759 | 0.392 | 0.156 | 0.667 | 0.344 | 0.97 | 0.748 | 0.349 |
| CC1(C)CCC(CN2CCN(c3ccc(C(=O)NS(=O)(=O)c4ccc(NCC5CCOCC5)c([N+](=O)[O-])c4)c(Oc4cnc5[nH]ccc5c4)c3)CC2)=C(c2ccc(Cl)cc2)C1 [Venetoclax] + CS(=O)(=O)CCNCc1ccc(-c2ccc3ncnc(Nc4ccc(OCc5cccc(F)c5)c(Cl)c4)c3c2)o1 [Lapatinib] (first compound max 1 µM, 7x7, partner max 10 µM) | 0.325 | 0.52 | 0.362 | 0.0973 | 0.629 | 0.519 | 0.19 | 0.345 | 0.399 | 0.187 | 0.176 | 0.55 | 0.341 | 0.356 | 0.373 | 0.673 | 0.635 | 0.948 | 0.975 | 0.261 |
| Cc1c2c(nn1C)CSCc1cc(n(C)n1)CSc1cc(c3ccccc3c1)OCCCc1c(C(=O)O)n(C)c3c-2c(Cl)ccc13 [AZD5991] + Nc1ccn([C@@H]2O[C@H](CO)[C@@H](O)C2(F)F)c(=O)n1 [Gemcitabine] (first compound max 1 µM, 7x7, partner max 0.3 µM) | 0.936 | 0.724 | 0.684 | 0.495 | 0.967 | 0.595 | 0.855 | 0.341 | 0.917 | 0.544 | 0.465 | 0.947 | 0.869 | 0.374 | 0.604 | 0.378 | 0.707 | 0.853 | 1 | 0.608 |
| C[C@@H](Oc1cc(-c2cnn(C3CCNCC3)c2)cnc1N)c1c(Cl)ccc(F)c1Cl [Crizotinib] + CC1=C(C(=CC=C1)Cl)NC(=O)C2=CN=C(S2)NC3=CC(=NC(=N3)C)N4CCN(CC4)CCO [Dasatinib] (first compound max 10 µM, 7x7, partner max 2 µM) | 0.771 | 0.888 | 0.772 | 0.556 | 0.226 | 0.768 | 0.688 | 0.391 | 0.838 | 0.81 | 0.481 | 0.686 | 0.918 | 0.843 | 0.714 | 0.863 | 0.776 | 0.976 | 1 | 0.285 |
| C[C@@H](Nc1cc(F)cc(F)c1)c1cc(C(=O)N(C)C)cc2c(=O)cc(N3CCOCC3)oc12 [AZD8186] + CC(=O)c1c(C)c2cnc(Nc3ccc(N4CCNCC4)cn3)nc2n(C2CCCC2)c1=O [Palbociclib] (first compound max 10 µM, 7x7, partner max 10 µM) | 0.514 | 0.755 | 0.434 | 0.233 | 0.333 | 0.469 | 0.115 | 0.394 | 0.594 | 0.509 | 0.449 | 0.691 | 0.53 | 0.564 | 0.411 | 0.378 | 0.571 | 0.536 | 0.999 | 0.247 |
| N#Cc1cnc(Nc2cc(NC[C@H]3CNCCO3)c(C(F)(F)F)cn2)cn1 [SRA737] + Nc1ccn([C@@H]2O[C@H](CO)[C@@H](O)C2(F)F)c(=O)n1 [Gemcitabine] (first compound max 10 µM, 7x7, partner max 0.3 µM) | 0.923 | 0.792 | 0.761 | 0.577 | 0.854 | 0.64 | 0.832 | 0.543 | 0.979 | 0.689 | 0.788 | 0.933 | 0.804 | 0.679 | 0.647 | 0.826 | 0.752 | 1 |  | 0.657 |
